Test [1] concerns the target Ribosomal protein S6 kinase alpha-6 (Homo sapiens) (UniProt Q9UK32). Nature of the test: Inhibition of human RSK4 at 500 nM by HotSpot assay relative to control.
Test [2] concerns the target T1, Testis-specific serine/threonine-protein kinase 1 (Homo sapiens) (UniProt Q9BXA7).
T1 sequence (whole entry): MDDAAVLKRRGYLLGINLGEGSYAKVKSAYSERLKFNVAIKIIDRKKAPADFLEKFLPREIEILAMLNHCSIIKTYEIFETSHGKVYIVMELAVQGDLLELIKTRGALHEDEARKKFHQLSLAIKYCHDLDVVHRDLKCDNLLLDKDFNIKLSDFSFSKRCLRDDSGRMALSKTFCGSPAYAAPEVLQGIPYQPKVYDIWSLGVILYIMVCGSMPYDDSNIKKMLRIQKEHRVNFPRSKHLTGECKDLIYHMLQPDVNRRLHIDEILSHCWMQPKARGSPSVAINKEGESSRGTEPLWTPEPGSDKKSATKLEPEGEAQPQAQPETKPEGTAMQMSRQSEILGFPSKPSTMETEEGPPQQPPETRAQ
Description: Inhibition of human TSSK1 at 500 nM by HotSpot assay relative to control.

Test [3] concerns the target T2, Tyrosine-protein kinase JAK3 (Homo sapiens) (UniProt P52333).
T2 sequence (whole entry): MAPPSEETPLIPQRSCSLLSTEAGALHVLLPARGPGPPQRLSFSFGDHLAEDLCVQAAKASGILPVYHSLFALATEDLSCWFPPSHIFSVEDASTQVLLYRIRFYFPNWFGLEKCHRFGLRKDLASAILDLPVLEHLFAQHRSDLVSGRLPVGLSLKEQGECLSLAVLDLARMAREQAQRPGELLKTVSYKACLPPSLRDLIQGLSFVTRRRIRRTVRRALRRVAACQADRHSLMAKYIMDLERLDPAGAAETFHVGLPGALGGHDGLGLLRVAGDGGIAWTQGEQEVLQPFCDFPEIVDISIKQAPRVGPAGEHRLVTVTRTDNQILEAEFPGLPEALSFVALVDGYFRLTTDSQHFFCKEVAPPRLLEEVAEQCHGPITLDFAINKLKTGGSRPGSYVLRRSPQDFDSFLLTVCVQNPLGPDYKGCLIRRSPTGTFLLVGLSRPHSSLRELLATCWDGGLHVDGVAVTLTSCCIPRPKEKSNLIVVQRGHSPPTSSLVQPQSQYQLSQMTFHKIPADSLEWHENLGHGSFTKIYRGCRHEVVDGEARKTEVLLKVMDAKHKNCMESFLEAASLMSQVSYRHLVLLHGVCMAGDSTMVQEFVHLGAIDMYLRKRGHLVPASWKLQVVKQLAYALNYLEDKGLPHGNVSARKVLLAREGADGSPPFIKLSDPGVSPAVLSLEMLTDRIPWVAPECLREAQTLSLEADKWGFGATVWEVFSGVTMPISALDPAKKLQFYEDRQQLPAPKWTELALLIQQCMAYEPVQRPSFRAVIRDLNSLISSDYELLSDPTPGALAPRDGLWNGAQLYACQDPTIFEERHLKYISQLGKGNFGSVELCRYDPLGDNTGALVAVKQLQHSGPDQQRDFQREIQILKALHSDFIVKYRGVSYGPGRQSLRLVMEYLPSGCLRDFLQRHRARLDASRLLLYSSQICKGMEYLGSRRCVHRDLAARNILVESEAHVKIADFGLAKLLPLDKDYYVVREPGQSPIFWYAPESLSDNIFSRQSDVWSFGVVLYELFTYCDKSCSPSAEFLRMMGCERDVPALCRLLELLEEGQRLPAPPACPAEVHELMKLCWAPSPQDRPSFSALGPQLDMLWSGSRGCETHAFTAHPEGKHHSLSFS
Description: Inhibition of human JAK3 at 500 nM by HotSpot assay relative to control.

Test [4] deals with T3, Dual specificity mitogen-activated protein kinase kinase 6 (Homo sapiens) (UniProt P52564).
T3 sequence (whole entry): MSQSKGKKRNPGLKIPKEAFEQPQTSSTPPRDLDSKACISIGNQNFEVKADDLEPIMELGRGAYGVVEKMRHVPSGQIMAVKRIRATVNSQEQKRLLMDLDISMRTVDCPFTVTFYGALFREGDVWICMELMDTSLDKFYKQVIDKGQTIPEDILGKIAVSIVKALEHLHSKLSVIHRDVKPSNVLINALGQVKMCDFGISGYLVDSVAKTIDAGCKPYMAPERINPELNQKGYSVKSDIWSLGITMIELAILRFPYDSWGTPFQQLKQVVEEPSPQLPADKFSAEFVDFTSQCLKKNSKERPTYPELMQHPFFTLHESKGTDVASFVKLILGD
Nature of the test: Inhibition of human MKK6 at 500 nM by HotSpot assay relative to control.

The target in test [5] is T4, Ephrin type-A receptor 3 (Homo sapiens) (UniProt P29320).
T4 sequence (whole entry): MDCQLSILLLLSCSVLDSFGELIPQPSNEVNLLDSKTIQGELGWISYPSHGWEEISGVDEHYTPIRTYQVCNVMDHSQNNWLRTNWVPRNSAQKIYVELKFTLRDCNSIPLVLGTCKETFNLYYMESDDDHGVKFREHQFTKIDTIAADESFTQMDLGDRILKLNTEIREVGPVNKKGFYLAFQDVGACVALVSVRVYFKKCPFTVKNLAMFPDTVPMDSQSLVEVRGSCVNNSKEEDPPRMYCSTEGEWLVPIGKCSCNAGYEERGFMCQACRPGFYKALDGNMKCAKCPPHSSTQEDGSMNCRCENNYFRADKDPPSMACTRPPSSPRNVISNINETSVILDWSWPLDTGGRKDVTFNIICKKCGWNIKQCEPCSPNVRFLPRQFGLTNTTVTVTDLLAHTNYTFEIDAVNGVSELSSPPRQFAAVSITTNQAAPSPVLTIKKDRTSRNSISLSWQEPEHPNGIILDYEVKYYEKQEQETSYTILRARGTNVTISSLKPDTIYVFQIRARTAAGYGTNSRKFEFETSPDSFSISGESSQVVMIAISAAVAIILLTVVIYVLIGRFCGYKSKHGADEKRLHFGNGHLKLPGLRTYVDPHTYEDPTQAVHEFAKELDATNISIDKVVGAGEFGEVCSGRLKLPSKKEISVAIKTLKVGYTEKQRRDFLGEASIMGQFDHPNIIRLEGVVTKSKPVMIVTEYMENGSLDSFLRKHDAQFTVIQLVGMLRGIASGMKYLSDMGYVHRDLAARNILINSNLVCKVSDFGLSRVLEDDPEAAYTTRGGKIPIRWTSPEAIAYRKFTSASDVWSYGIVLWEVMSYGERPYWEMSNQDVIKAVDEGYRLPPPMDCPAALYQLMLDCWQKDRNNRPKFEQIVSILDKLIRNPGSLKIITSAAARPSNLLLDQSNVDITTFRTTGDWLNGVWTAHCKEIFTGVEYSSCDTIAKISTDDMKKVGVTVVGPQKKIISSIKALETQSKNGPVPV
Description: Inhibition of human EPHA3 at 500 nM by HotSpot assay relative to control.

Test [6] has as its target Interleukin-1 receptor-associated kinase 1 (Homo sapiens) (UniProt P51617). Description: Inhibition of human IRAK1 at 500 nM by HotSpot assay relative to control.

Inhibition data for two molecules are collected here from ChEMBL document CHEMBL5653615 (J Biol Chem, 2013).

The inhibition is the relative decrease from the control value, in per cent.

Sequence of Interleukin-1 receptor-associated kinase 1 (Homo sapiens) (P51617 whole entry, looked up): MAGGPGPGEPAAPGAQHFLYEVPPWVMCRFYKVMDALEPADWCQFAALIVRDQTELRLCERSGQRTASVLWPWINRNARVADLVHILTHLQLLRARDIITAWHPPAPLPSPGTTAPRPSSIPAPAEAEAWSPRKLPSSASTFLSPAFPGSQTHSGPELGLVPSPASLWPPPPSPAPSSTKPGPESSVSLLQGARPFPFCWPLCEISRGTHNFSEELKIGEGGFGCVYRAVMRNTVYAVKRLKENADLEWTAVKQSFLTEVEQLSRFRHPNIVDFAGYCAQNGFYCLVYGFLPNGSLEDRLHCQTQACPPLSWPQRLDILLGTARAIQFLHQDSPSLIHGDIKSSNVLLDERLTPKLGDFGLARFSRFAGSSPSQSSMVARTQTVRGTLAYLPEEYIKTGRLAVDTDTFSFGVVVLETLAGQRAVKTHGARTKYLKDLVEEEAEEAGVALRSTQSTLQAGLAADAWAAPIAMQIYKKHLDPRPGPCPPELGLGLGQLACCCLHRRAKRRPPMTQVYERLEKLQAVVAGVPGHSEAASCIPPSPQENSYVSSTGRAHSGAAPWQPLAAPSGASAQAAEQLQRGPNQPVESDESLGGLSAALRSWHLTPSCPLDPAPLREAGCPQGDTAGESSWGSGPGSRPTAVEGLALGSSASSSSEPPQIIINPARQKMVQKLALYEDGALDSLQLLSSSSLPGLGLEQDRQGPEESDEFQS
Sequence of Ribosomal protein S6 kinase alpha-6 (Homo sapiens) (Q9UK32 whole entry): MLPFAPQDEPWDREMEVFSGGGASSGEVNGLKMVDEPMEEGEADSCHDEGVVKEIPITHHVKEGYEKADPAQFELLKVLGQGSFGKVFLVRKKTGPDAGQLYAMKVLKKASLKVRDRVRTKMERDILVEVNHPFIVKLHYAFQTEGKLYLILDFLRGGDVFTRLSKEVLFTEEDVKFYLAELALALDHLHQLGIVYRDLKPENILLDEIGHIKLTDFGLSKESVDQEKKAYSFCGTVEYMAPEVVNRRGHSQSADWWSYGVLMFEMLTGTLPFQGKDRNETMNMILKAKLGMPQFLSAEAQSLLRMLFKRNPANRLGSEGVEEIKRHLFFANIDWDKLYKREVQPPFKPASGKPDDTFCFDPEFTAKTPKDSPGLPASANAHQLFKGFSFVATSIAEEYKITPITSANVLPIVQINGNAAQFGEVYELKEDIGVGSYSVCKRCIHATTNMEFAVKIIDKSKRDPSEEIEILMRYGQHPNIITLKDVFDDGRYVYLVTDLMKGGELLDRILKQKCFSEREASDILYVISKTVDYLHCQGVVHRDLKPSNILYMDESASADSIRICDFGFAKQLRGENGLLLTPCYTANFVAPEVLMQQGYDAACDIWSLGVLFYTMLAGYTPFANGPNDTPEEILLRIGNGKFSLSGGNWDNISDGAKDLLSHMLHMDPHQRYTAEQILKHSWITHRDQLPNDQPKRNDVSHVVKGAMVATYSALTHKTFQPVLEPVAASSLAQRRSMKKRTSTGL

For the molecule `Oc1n[nH]c2nnc(-c3c(-c4ccccc4)nn4ccccc34)cc12`, the inhibition is -2.71% in test [1]; -0.04% in test [2]; -3.22% in test [3]; 8.78% in test [4]; 5.45% in test [5]; -2.21% in test [6].

In the case of `Nc1n[nH]c2nnc(-c3c(-c4ccccc4)nn4ccccc34)cc12`, the inhibition was 4.48% in test [1]; -1.56% in test [2]; -4.59% in test [3]; 9.06% in test [4]; 2.18% in test [5]; 0.31% in test [6].
